Results reported in patent US8940291B2 (priority 2009, dated 2015).
“Also recorded” adds a separate entry of the source. Like-named read-outs stand apart in the source and are kept apart here.

Tests used:
VSVΔ51-induced genes = format: cell-based, mouse
B16 melanoma cells = assay: Cell cycle analysis in B16 melanoma cells (propidium iodine, flow cytometry); format: cell-based, mouse; conditions: over 48 hours
4T1 cells = format: cell-based, mouse; conditions: 48 h
VSVΔ51 [1] = format: cell-based, Vesicular stomatitis virus
VSVΔ51 [2] = format: cell-based, Vesicular stomatitis virus; conditions: 40 h
CT26 cells = format: cell-based, mouse; conditions: 48 h
VSVΔ51 [3] = format: cell-based, Vesicular stomatitis virus; remark: listed apart in the source
[4] = test system: oncolytic vaccinia virus (VVdd); format: cell-based; conditions: 20 μM; 72 h
ISRE-luciferase reporter = format: cell-based, human
wild type VSV = format: cell-based, Vesicular stomatitis virus
VSVΔ51 [5] = format: cell-based, Vesicular stomatitis virus; remark: listed apart in the source
[6] = test system: IFN mediated antiviral state in U251 cells; format: cell-based, human
VSVΔ51 [7] = format: cell-based, Vesicular stomatitis virus; remark: listed apart in the source
[8] = test system: IFN responsive U251 cells; format: cell-based, human
VSVΔ51 [9] = format: cell-based, Vesicular stomatitis virus; remark: listed apart in the source
VSVΔ51 [10] = format: cell-based, Vesicular stomatitis virus; conditions: 48 hours
VSVΔ51 [11] = format: cell-based, Vesicular stomatitis virus; remark: listed apart in the source
wild type VSV (wtVSV) = format: cell-based, Vesicular stomatitis virus
[12] = 4 h pre-treatment, with and without VSVΔ51

Compound: CCCSc1ccc2nc(NC(=O)OC)[nH]c2c1 [Albendazole]
- VSV-induced cytotoxicity (VSV/CTRL kill ratio) (4T1 and CT26 cells; [12]): enhance VSV-induced cytotoxicity

Compound: COC(=O)Nc1nc2ccc(C(=O)c3cccs3)cc2[nH]1 [Nocodazole]
- VSV-induced cytotoxicity (VSV/CTRL kill ratio) (4T1 and CT26 cells; [12]): enhance VSV-induced cytotoxicity

Compound: O=C(CCCCCCC(=O)Nc1ccccc1)NO [SAHA, reference compound]
- share of VSVΔ51-induced cellular genes whose induction is reduced (VSVΔ51-induced genes): 79%

Compound: CC(/C=C/C(=O)NO)=C\[C@@H](C)C(=O)c1ccc(N(C)C)cc1 [TSA, reference compound]
- cell cycle distribution (B16 melanoma cells): blocks the cell cycle in G1

Compound: O=C1OC(c2ccccc2)C(Cl)=C1Cl (stereo not shown) [VSe1, 3,4-dichloro-5-phenyl-2,5-dihydrofuran-2-one]
- cell killing in combination with VSVΔ51 (combination index) (4T1 cells): synergistic cell killing
- differential in replication between normal and cancerous tissues (VSVΔ51 [1]): roughly 1000 fold
- growth of VSVΔ51 in tumour tissue (VSVΔ51 [1]): over 100 fold
- VSVΔ51-GFP growth and spread (green fluorescence) (VSVΔ51 [1]; 40 μM): significantly enhanced
- interferon protection from VSVΔ51 infection (VSVΔ51 [2]): partially overcome
- cell killing in combination with VSVΔ51 (combination index) (CT26 cells): synergistic cell killing
- replication of VSVΔ51 in normal tissues (VSVΔ51 [3]): did not increase the replication
- VVdd spread and viral output [4]: able to enhance the spread and replication; also recorded: enhanced spread and viral output; also recorded: enhances spread
- interferon dependent transcription (luciferase) (ISRE-luciferase reporter): blunted
- share of VSVΔ51-induced cellular genes whose induction is reduced (VSVΔ51-induced genes): over 96%
- growth of VSV with a wild type M gene (wild type VSV): minimal ability to enhance the growth
- increase in viral titer (VSVΔ51 [5]): 1000 fold
- cell cycle distribution (B16 melanoma cells; listed as DCPDF): cells ultimately accumulate in G1; also recorded: block in G1
- sensitivity of IFN-protected cells to VSVΔ51 [6]: partially re-sensitized to VSVΔ51; also recorded: can overcome pre-existing IFN mediated antiviral state

Compound: CCC1=C[C@@H]2CN(C1)Cc1c([nH]c3ccccc13)[C@@](C(=O)OC)(c1cc3c(cc1OC)N(C)[C@H]1[C@@](O)(C(=O)OC)[C@H](OC(C)=O)[C@]4(CC)C=CCN5CC[C@]31[C@@H]54)C2 [Vinorelbine base, Vinorelbine Base]
- VSV-induced cytotoxicity (VSV/CTRL kill ratio) (4T1 and CT26 cells; [12]): enhance VSV-induced cytotoxicity

Compound: COc1cc2c(c(OC)c1OC)-c1ccc(OC)c(=O)cc1[C@@H](NC(C)=O)CC2 [colchicine]
- VSVΔ51 spread (VSVΔ51 [7]): enhanced spread of VSVΔ51
- VSV oncolysis [8]: enhanced VSV oncolysis
- ability to overcome IFN-induced antiviral effects [8]: could not overcome IFN-induced antiviral effects
- enhancement of virus production (maximum) (VSVΔ51 [9]): ~1000 fold
- lowest dose with strong enhancement of VSVΔ51 (GFP) spread (VSVΔ51 [10]): 80 nM
- enhancement of VSVΔ51 spread (VSVΔ51 [11]): not observed in normal MRC-5 cells
- number of GFP positive cells with wtVSV (wild type VSV (wtVSV)): appeared to decrease the number of GFP positive cells
- VSV-induced cytotoxicity (VSV/CTRL kill ratio) (4T1 and CT26 cells): enhance VSV-induced cytotoxicity

Compound: Parbendazole
- VSV-induced cytotoxicity (VSV/CTRL kill ratio) (4T1 and CT26 cells; [12]): enhance VSV-induced cytotoxicity
